Data as given in the supplement of paper PMC11451515.

Columns and labels:
Details in all cases: 48 h
SEM cells [1] = test: AUC of viability dose-response curve (% viability x log10 dose units); higher = less sensitive
Outline: (§1)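 Leukemia cells adapted to each medium were seeded in 1536-well plates (500 or 1000 cells/well). They were dosed with library compounds in DMSO at 11 threefold doses, 47 μM to 0.79 nM, for 48 h at 37°C. CellTiter-Glo One luminescence was normalised per plate to DMSO and cell-free wells. Area under the curve was integrated by trapezoidal rule over log10 doses on a four-parameter log-logistic fit; curves exceeding full viability were scaled and curves failing quality control removed.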

P12-Ichikawa [2] = test: as above
Outline: as §1

NOMO1 [3] = test: as above
Outline: as §1

SEM cells [4] = test: cell viability relative to DMSO control; higher = less cytotoxic
Outline: (§2)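 Viability is a per-plate percentage relative to DMSO wells, with cell-free wells as background. CellTiter-Glo One luminescence was read after 48 h at 37°C on 1536-well plates (5 μl) of NOMO1 or SEM (500 cells/well) or P12-Ichikawa (1000 cells/well) leukemia cells. The cells had been adapted for at least four passages in each medium and pin-dosed with library compounds in DMSO from 47 μM to 0.79 nM in 11 threefold steps.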

P12-Ichikawa [5] = test: as above
Outline: as §2

NOMO1 [6] = test: as above
Outline: as §2

COc1ccc(-c2ccc3cc(C(=O)O)ccc3c2)cc1C12CC3CC(CC(C3)C1)C2
AUC of viability dose-response curve
Details	NOMO1 [3]	P12-Ichikawa [2]	SEM cells [1]
HPLM + 10% dialyzed FBS	436	465	459
RPMI 5 mM glucose + 10% FBS	441	447	468
RPMI 5 mM glucose + 10% dialyzed FBS	387	458	459

CN1C2CCC1CC(OC(=O)C(CO)c1ccccc1)C2 (stereo not given)
AUC of viability dose-response curve
Details	NOMO1 [3]	P12-Ichikawa [2]	SEM cells [1]
HPLM + 10% dialyzed FBS	467	454	464
RPMI 5 mM glucose + 10% FBS	463	465	439
RPMI 5 mM glucose + 10% dialyzed FBS	472	469	474

CSCC[C@H](NC(=O)[C@H](Cc1c[nH]c2ccccc12)NC(=O)CCNC(=O)OC(C)(C)C)C(=O)N[C@@H](CC(=O)O)C(=O)N[C@@H](Cc1ccccc1)C(N)=O
AUC of viability dose-response curve
Details	NOMO1 [3]	P12-Ichikawa [2]	SEM cells [1]
HPLM + 10% dialyzed FBS	440	470	460
RPMI 5 mM glucose + 10% FBS	453	464	461
RPMI 5 mM glucose + 10% dialyzed FBS	456	470	459

Cc1ncc(-c2ccnc(Nc3ccc([S+](C)(=O)[O-])cc3)n2)n1C(C)C
AUC of viability dose-response curve
Details	NOMO1 [3]	P12-Ichikawa [2]	SEM cells [1]
HPLM + 10% dialyzed FBS	400	437	367
RPMI 5 mM glucose + 10% FBS	396	412	357
RPMI 5 mM glucose + 10% dialyzed FBS	389	416	380

CCCCCCCCCCCCc1ccc([S+](=O)([O-])Nc2nncs2)cc1
AUC of viability dose-response curve
Details	NOMO1 [3]	P12-Ichikawa [2]	SEM cells [1]
HPLM + 10% dialyzed FBS	390	411	447
RPMI 5 mM glucose + 10% FBS	443	460	360
RPMI 5 mM glucose + 10% dialyzed FBS	452	451	415

C1COC(NC(C2CC2)C2CC2)=N1
cell viability [%]
Details	NOMO1 [6]	P12-Ichikawa [5]	SEM cells [4]
HPLM + 10% dialyzed FBS, 0.000781 µM	73.1	82.7	79.5
HPLM + 10% dialyzed FBS, 0.00234 µM	94	92	78
HPLM + 10% dialyzed FBS, 0.00702 µM	93	84.2	66.1
HPLM + 10% dialyzed FBS, 0.0211 µM	90.6	94.6	95.3
HPLM + 10% dialyzed FBS, 0.0632 µM	92.3	88.9	72.9
HPLM + 10% dialyzed FBS, 0.19 µM	83.5	90.7	87.9
HPLM + 10% dialyzed FBS, 0.569 µM	97.3	95.5	81.2
HPLM + 10% dialyzed FBS, 1.71 µM	95.5	85.4	21.6
HPLM + 10% dialyzed FBS, 5.12 µM	94.8	88.9	88.7
HPLM + 10% dialyzed FBS, 15.4 µM	96.3	100	99
HPLM + 10% dialyzed FBS, 46.1 µM	64.8	77.1	60.1
RPMI 5 mM glucose + 10% FBS, 0.000781 µM	75.3	89.2	72.5
RPMI 5 mM glucose + 10% FBS, 0.00234 µM	92.5	103	92
RPMI 5 mM glucose + 10% FBS, 0.00702 µM	79.2	106	72.4
RPMI 5 mM glucose + 10% FBS, 0.0211 µM	87.6	98.4	75.8
RPMI 5 mM glucose + 10% FBS, 0.0632 µM	89.7	103	79.5
RPMI 5 mM glucose + 10% FBS, 0.19 µM	90.8	97.6	81.4
RPMI 5 mM glucose + 10% FBS, 0.569 µM	89.5	93.8	87.2
RPMI 5 mM glucose + 10% FBS, 1.71 µM	80.1	91.3	15.3
RPMI 5 mM glucose + 10% FBS, 5.12 µM	90.7	94.6	75.6
RPMI 5 mM glucose + 10% FBS, 15.4 µM	91.1	95.5	75.6
RPMI 5 mM glucose + 10% FBS, 46.1 µM	84.5	77.7	45.9
RPMI 5 mM glucose + 10% dialyzed FBS, 0.000781 µM	79.2	79.5	74.6
RPMI 5 mM glucose + 10% dialyzed FBS, 0.00234 µM	86.1	80.5	89.1
RPMI 5 mM glucose + 10% dialyzed FBS, 0.00702 µM	83.9	87.1	66.9
RPMI 5 mM glucose + 10% dialyzed FBS, 0.0211 µM	85	91.6	75.7
RPMI 5 mM glucose + 10% dialyzed FBS, 0.0632 µM	86.4	87.2	73.6
RPMI 5 mM glucose + 10% dialyzed FBS, 0.19 µM	94.1	82.4	81.8
RPMI 5 mM glucose + 10% dialyzed FBS, 0.569 µM	97.6	88.6	106
RPMI 5 mM glucose + 10% dialyzed FBS, 1.71 µM	81.4	83.4	16.6
RPMI 5 mM glucose + 10% dialyzed FBS, 5.12 µM	82.7	91.6	87.5
RPMI 5 mM glucose + 10% dialyzed FBS, 15.4 µM	89.2	89.3	105
RPMI 5 mM glucose + 10% dialyzed FBS, 46.1 µM	73	58.8	36.4

AUC of viability dose-response curve
Details	HPLM + 10% dialyzed FBS	RPMI 5 mM glucose + 10% FBS	RPMI 5 mM glucose + 10% dialyzed FBS
NOMO1 [3]	428	415	408
P12-Ichikawa [2]	425	459	404

FC(F)(F)c1ccc(CNc2ccc(Cc3c[nH]c4ncc(Cl)cc34)cn2)cn1
AUC of viability dose-response curve
Details	HPLM + 10% dialyzed FBS	RPMI 5 mM glucose + 10% FBS	RPMI 5 mM glucose + 10% dialyzed FBS
P12-Ichikawa [2]	268	367	370
SEM cells [1]	317	245	314

O[C@@H]1[C@@H](O)[C@H](O[C@@H]([C@H]1O)C(O)=O)OC2=C(O)C(=C3C(=O)\C=C(/OC3=C2)C4=CC=CC=C4)O
AUC of viability dose-response curve
Details	NOMO1 [3]	P12-Ichikawa [2]	SEM cells [1]
HPLM + 10% dialyzed FBS	445	447	446
RPMI 5 mM glucose + 10% FBS	427	448	409
RPMI 5 mM glucose + 10% dialyzed FBS	460	460	425
